Results from patent publication US12649750B2, “Macrocyclic compounds, compositions, and methods of using thereof” (Sionna Therapeutics Inc., priority 2022, dated 2026).

Tests used:
NBD1 = target: T1, NBD1 (Homo sapiens, UniProt P13569); test: Aggregation analysis using differential static light scattering (DSLS), thermal stability of NBD1 (ΔTagg); assay type: binding; settings: ΔTagg versus DMSO control, NBD1 0.2 mg/ml
T1 construct: Purified recombinant NBD1 was produced using previously described methods; made in house
Procedure, shortened: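 Purified recombinant NBD1 at 0.2 mg/ml in 50 mM Tris-HCl, 150 mM NaCl, 5 mM MgCl2, 2 mM ATP, 2 mM DTT, pH 7.6, 1% glycerol, with compound, heated 1° C./min to 70° C. under light-scattering monitoring. Tagg taken at curve inflection; ΔTagg is compound Tagg minus mean DMSO-control Tagg, binned A (≤5° C.), B (>5-≤10° C.), C (>10-≤25° C.).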

CFTR = target: T2, CFTR (Homo sapiens, UniProt P13569, DEL508-508); test: TECC24 AUC fold over DMSO @10 μM, CFTR-mediated transepithelial chloride transport in CF-HBE cells; assay type: cell-based; settings: test agent AUC divided by DMSO vehicle AUC, primary CF-HBE cells, ΔF508 homozygous donor, 48 hours incubation
T2 construct: Primary human bronchial epithelial cells from a ΔF508 homozygous CF donor; host or cells: primary human bronchial epithelial cells (CF-HBE), ΔF508 homozygous donor
Procedure, shortened: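 Value is ratio of test-agent to DMSO AUC of equivalent transepithelial Cl− current, integrated from forskolin (10 μM) stimulation to CFTR inhibitor-172 (20 μM) block, with benzamil 10 μM present. CF-HBE (ΔF508/ΔF508) cultures had 48 h compound exposure at 10 μM, 36.5° C before recording.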

T1 sequence (P13569 423-646 limits assumed): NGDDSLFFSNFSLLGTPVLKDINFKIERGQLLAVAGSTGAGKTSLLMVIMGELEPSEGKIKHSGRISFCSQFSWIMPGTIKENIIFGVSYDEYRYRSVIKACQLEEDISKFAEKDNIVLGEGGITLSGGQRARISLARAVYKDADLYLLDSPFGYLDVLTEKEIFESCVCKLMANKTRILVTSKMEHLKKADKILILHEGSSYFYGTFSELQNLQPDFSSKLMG
T2 sequence (P13569 with tags, fused parts or gaps DEL508-508): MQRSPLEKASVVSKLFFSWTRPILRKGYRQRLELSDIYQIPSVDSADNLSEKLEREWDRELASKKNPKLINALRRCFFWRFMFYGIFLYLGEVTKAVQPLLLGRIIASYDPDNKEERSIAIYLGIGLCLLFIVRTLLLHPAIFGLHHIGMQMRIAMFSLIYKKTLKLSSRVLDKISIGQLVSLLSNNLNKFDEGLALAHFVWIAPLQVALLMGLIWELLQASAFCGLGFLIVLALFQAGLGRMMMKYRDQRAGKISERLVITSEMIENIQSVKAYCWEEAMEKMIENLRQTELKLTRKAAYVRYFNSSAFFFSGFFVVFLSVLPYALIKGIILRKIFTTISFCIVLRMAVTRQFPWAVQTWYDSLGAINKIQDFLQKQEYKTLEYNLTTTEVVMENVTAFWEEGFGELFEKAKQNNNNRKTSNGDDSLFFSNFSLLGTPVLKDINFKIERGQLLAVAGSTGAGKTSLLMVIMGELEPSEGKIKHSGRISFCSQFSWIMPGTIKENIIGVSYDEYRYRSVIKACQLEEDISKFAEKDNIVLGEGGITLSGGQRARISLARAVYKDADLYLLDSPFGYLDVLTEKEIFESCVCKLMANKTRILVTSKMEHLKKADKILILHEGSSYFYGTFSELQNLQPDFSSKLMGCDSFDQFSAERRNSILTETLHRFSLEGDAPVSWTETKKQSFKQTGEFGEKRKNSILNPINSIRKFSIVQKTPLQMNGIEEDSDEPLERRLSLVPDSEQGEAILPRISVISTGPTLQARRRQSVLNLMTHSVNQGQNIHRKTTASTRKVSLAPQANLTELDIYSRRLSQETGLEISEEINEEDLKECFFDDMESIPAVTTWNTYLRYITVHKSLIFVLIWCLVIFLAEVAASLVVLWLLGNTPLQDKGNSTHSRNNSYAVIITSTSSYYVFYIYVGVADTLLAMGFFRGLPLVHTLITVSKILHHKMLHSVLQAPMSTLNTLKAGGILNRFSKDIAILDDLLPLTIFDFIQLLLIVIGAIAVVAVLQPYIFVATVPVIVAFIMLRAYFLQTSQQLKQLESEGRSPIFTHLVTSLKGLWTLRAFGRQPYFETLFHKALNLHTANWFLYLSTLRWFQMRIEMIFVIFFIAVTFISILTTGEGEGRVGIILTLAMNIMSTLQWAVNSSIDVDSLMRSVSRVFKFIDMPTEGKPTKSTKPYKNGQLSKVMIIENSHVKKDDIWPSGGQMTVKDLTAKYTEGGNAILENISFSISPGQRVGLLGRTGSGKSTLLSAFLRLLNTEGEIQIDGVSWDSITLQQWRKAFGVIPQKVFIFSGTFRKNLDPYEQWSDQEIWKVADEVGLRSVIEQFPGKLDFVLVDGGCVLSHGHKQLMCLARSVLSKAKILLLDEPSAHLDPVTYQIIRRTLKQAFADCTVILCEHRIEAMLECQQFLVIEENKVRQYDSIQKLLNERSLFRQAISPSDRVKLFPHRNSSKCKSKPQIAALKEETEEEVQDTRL

| Compound | DSLS 3D (100 μM ΔT) (NBD1) | TECC (AUC, 10 μM) (CFTR) |
| --- | --- | --- |
| Cn1nc2nc1-c1cc(ccc1F)[S+]([O-])c1c(F)cc3[nH]ccc3c1CCS(=O)(=O)CC(C)(C)CCC[C@]2(C)c1cccc(CC(=O)O)c1 (single isomer, unassigned) [Compound 209A] | B (a value above 5 °C and less than or equal to 10 °C is marked “B”) | A (a TECC value less than 12 is marked “A”) |
| Cn1nc2nc1-c1cc(ccc1F)[S+]([O-])c1c(F)cc3[nH]ccc3c1CCS(=O)(=O)CC(C)(C)CCC[C@]2(C)c1cccc(CC(=O)O)c1 (single isomer, unassigned) [Compound 209B] | C (a value greater than 10 °C and less than or equal to 25 °C is marked “C”) | C (a value between 20 and 80 is marked “C”) |
| C[C@@H](Cc1cccc([C@@]2(C)CCCC(C)(C)CS(=O)(=O)CCc3c(c(F)cc4[nH]ccc34)[S+]([O-])c3cccc(c3)-c3nc2nn3C)c1)C(=O)O (single isomer, unassigned) [Compound 211A] | C (a value greater than 10 °C and less than or equal to 25 °C is marked “C”) | B (a value between 12-20 is marked “B”) |
| C[C@@H](Cc1cccc([C@@]2(C)CCCC(C)(C)CS(=O)(=O)CCc3c(c(F)cc4[nH]ccc34)[S+]([O-])c3cccc(c3)-c3nc2nn3C)c1)C(=O)O (single isomer, unassigned) [Compound 211B] | C (a value greater than 10 °C and less than or equal to 25 °C is marked “C”) | A (a TECC value less than 12 is marked “A”) |
| Cn1nc2nc1-c1cc(ccc1F)[S+]([O-])c1c(F)cc3[nH]ccc3c1CCS(=O)(=O)CC(C)(C)CCC[C@]2(C)c1cccc(CCC(=O)O)c1 (single isomer, unassigned) [Compound 215A] | C (a value greater than 10 °C and less than or equal to 25 °C is marked “C”) | A (a TECC value less than 12 is marked “A”) |
| Cn1nc2nc1-c1cc(ccc1F)[S+]([O-])c1c(F)cc3[nH]ccc3c1CCS(=O)(=O)CC(C)(C)CCC[C@]2(C)c1cccc(CCC(=O)O)c1 (single isomer, unassigned) [Compound 215B] | C (a value greater than 10 °C and less than or equal to 25 °C is marked “C”) | C (a value between 20 and 80 is marked “C”) |
| Cn1nc2nc1-c1cc(ccc1F)[S+]([O-])c1c(F)cc3[nH]ccc3c1CCS(=O)(=O)CC(C)(C)CCC[C@]2(C)c1cccc(CCO)c1 (single isomer, unassigned) [Compound 216A] | B (a value above 5 °C and less than or equal to 10 °C is marked “B”) | B (a value between 12-20 is marked “B”) |
| Cn1nc2nc1-c1cc(ccc1F)[S+]([O-])c1c(F)cc3[nH]ccc3c1CCS(=O)(=O)CC(C)(C)CCC[C@]2(C)c1cccc(CCO)c1 (single isomer, unassigned) [Compound 216B] | C (a value greater than 10 °C and less than or equal to 25 °C is marked “C”) | C (a value between 20 and 80 is marked “C”) |
| COCC(Cc1cccc([C@@]2(C)CCCC(C)(C)CS(=O)(=O)CCc3c(c(F)cc4[nH]ccc34)[S+]([O-])c3ccc(F)c(c3)-c3nc2nn3C)c1)C(=O)O (single isomer, unassigned) [Compound 218A] | B (a value above 5 °C and less than or equal to 10 °C is marked “B”) | A (a TECC value less than 12 is marked “A”) |
| COCC(Cc1cccc([C@@]2(C)CCCC(C)(C)CS(=O)(=O)CCc3c(c(F)cc4[nH]ccc34)[S+]([O-])c3ccc(F)c(c3)-c3nc2nn3C)c1)C(=O)O (single isomer, unassigned) [Compound 218B] | C (a value greater than 10 °C and less than or equal to 25 °C is marked “C”) | C (a value between 20 and 80 is marked “C”) |
| Cn1nc2nc1-c1cc(ccc1F)[S+]([O-])c1c(F)cc3[nH]ccc3c1CCS(=O)(=O)CC(C)(C)CCC[C@]2(C)c1cccc(CCS(C)(=O)=O)c1 (single isomer, unassigned) [Compound 220A] | A (an ΔTagg value less than or equal to 5 °C is marked “A”) | A (a TECC value less than 12 is marked “A”) |
| Cn1nc2nc1-c1cc(ccc1F)[S+]([O-])c1c(F)cc3[nH]ccc3c1CCS(=O)(=O)CC(C)(C)CCC[C@]2(C)c1cccc(CCS(C)(=O)=O)c1 (single isomer, unassigned) [Compound 220B] | C (a value greater than 10 °C and less than or equal to 25 °C is marked “C”) | C (a value between 20 and 80 is marked “C”) |
| C[C@@H](Cc1cccc([C@@]2(C)CCCC(C)(C)CS(=O)(=O)CCc3c(c(F)cc4[nH]ccc34)[S+]([O-])c3ccnc(c3)-c3nc2nn3C)c1)C(=O)O (single isomer, unassigned) [Compound 222A] | B (a value above 5 °C and less than or equal to 10 °C is marked “B”) | C (a value between 20 and 80 is marked “C”) |
| C[C@@H](Cc1cccc([C@@]2(C)CCCC(C)(C)CS(=O)(=O)CCc3c(c(F)cc4[nH]ccc34)[S+]([O-])c3ccnc(c3)-c3nc2nn3C)c1)C(=O)O (single isomer, unassigned) [Compound 222B] | C (a value greater than 10 °C and less than or equal to 25 °C is marked “C”) | C (a value between 20 and 80 is marked “C”) |
| Cn1nc2nc1-c1cc(ccc1F)[S+]([O-])c1c(F)cc3[nH]ccc3c1CCS(=O)(=O)CC(C)(C)CCC[C@]2(C)c1ccccc1 (single isomer, unassigned) [Compound 223A] | A (an ΔTagg value less than or equal to 5 °C is marked “A”) | A (a TECC value less than 12 is marked “A”) |
| Cn1nc2nc1-c1cc(ccc1F)[S+]([O-])c1c(F)cc3[nH]ccc3c1CCS(=O)(=O)CC(C)(C)CCC[C@]2(C)c1ccccc1 (single isomer, unassigned) [Compound 223B] | C (a value greater than 10 °C and less than or equal to 25 °C is marked “C”) | C (a value between 20 and 80 is marked “C”) |
| Cn1nc2nc1-c1cc(ccn1)[S+]([O-])c1c(F)cc3[nH]ccc3c1CCS(=O)(=O)CC(C)(C)CCC[C@]2(C)c1cccc(CCC(=O)O)c1 (single isomer, unassigned) [Compound 224] | C (a value greater than 10 °C and less than or equal to 25 °C is marked “C”) | C (a value between 20 and 80 is marked “C”) |
| C[C@@H](Cc1cccc([C@@]2(C)CCCC(C)(C)CS(=O)(=O)CCc3c(c(F)c(F)c4[nH]ccc34)[S+]([O-])c3ccc(F)c(c3)-c3nc2nn3C)c1)C(=O)O (single isomer, unassigned) [Compound 225A] | B (a value above 5 °C and less than or equal to 10 °C is marked “B”) | C (a value between 20 and 80 is marked “C”) |
| C[C@@H](Cc1cccc([C@@]2(C)CCCC(C)(C)CS(=O)(=O)CCc3c(c(F)c(F)c4[nH]ccc34)[S+]([O-])c3ccc(F)c(c3)-c3nc2nn3C)c1)C(=O)O (single isomer, unassigned) [Compound 225B] | C (a value greater than 10 °C and less than or equal to 25 °C is marked “C”) | C (a value between 20 and 80 is marked “C”) |
| Cn1nc2nc1-c1cc(ccc1F)[S+]([O-])c1c(F)cc3[nH]ccc3c1CCS(=O)(=O)CC(C)(C)CCC[C@]2(C)c1cccc(C[C@@H](O)CO)c1 (single isomer, unassigned) [Compound 235A] | B (a value above 5 °C and less than or equal to 10 °C is marked “B”) | B (a value between 12-20 is marked “B”) |
| Cn1nc2nc1-c1cc(ccc1F)[S+]([O-])c1c(F)cc3[nH]ccc3c1CCS(=O)(=O)CC(C)(C)CCC[C@]2(C)c1cccc(C[C@@H](O)CO)c1 (single isomer, unassigned) [Compound 235B] | C (a value greater than 10 °C and less than or equal to 25 °C is marked “C”) | C (a value between 20 and 80 is marked “C”) |
| Cn1nc2nc1-c1cc(ccc1F)[S+]([O-])c1c(F)cc3[nH]ccc3c1CCS(=O)(=O)CC(C)(C)CCC[C@]2(C)c1cccc([C@@H](O)CO)c1 (single isomer, unassigned) [Compound 236A] | B (a value above 5 °C and less than or equal to 10 °C is marked “B”) | A (a TECC value less than 12 is marked “A”) |
| Cn1nc2nc1-c1cc(ccc1F)[S+]([O-])c1c(F)cc3[nH]ccc3c1CCS(=O)(=O)CC(C)(C)CCC[C@]2(C)c1cccc([C@@H](O)CO)c1 (single isomer, unassigned) [Compound 236B] | C (a value greater than 10 °C and less than or equal to 25 °C is marked “C”) | C (a value between 20 and 80 is marked “C”) |
| C[C@H](O)Cc1cccc([C@@]2(C)CCCC(C)(C)CS(=O)(=O)CCc3c(c(F)cc4[nH]ccc34)[S+]([O-])c3ccc(F)c(c3)-c3nc2nn3C)c1 (single isomer, unassigned) [Compound 237A] | A (an ΔTagg value less than or equal to 5 °C is marked “A”) | C (a value between 20 and 80 is marked “C”) |
| C[C@H](O)Cc1cccc([C@@]2(C)CCCC(C)(C)CS(=O)(=O)CCc3c(c(F)cc4[nH]ccc34)[S+]([O-])c3ccc(F)c(c3)-c3nc2nn3C)c1 (single isomer, unassigned) [Compound 237B] | C (a value greater than 10 °C and less than or equal to 25 °C is marked “C”) | C (a value between 20 and 80 is marked “C”) |
